This passage reports IC50 and Activity results from ChEMBL document CHEMBL1667852, “Isosteric replacement of the Z-enone with haloethyl ketone and E-enone in a resorcylic acid lactone series and biological evaluation” (Bioorg Med Chem Lett, 2011).

As usually defined, the IC50 is the point on the concentration scale where inhibition reaches its midpoint.

The target in test [1] is Vascular endothelial growth factor receptor 3 (Homo sapiens, UniProt P35916). Kind of test: Inhibition of human recombinant VEGFR3 in cell free system after 90 mins.
In test [2] the target is T1, Receptor-type tyrosine-protein kinase FLT3 (Homo sapiens, UniProt P36888).
T1 sequence (P36888 whole entry): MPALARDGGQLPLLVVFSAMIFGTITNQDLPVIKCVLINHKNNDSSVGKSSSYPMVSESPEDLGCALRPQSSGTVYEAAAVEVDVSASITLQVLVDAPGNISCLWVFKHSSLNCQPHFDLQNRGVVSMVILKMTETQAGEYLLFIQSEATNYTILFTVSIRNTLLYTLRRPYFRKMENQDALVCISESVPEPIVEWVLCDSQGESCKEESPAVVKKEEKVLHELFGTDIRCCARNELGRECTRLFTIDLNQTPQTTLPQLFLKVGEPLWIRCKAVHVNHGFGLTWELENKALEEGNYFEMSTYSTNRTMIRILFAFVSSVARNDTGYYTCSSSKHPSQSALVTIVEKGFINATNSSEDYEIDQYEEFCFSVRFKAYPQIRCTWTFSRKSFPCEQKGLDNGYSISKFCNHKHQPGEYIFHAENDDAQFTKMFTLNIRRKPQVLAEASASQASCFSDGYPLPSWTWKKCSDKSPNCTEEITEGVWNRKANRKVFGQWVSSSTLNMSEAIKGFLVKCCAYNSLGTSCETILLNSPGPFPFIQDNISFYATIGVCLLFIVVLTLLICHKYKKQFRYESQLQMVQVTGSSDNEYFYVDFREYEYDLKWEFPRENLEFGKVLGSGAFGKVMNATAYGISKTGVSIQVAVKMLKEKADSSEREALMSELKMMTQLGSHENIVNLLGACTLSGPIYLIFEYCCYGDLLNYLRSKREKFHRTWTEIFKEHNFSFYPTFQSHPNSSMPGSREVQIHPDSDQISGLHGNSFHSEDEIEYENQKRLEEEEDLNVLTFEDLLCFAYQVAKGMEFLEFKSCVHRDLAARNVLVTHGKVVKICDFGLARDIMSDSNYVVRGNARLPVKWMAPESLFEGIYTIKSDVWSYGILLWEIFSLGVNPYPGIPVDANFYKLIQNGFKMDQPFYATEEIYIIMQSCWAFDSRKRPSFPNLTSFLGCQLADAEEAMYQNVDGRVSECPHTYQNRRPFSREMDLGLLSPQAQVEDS
Kind of test: Inhibition of human recombinant FLT-3 kinase expressed in insect cells after 90 mins.

In test [3] the target is Dual specificity mitogen-activated protein kinase kinase 1 (Homo sapiens, UniProt Q02750). Kind of test: Inhibition of human recombinant MEK1 expressed in insect cells after 20 mins.
Sequence of Dual specificity mitogen-activated protein kinase kinase 1 (Q02750 whole entry): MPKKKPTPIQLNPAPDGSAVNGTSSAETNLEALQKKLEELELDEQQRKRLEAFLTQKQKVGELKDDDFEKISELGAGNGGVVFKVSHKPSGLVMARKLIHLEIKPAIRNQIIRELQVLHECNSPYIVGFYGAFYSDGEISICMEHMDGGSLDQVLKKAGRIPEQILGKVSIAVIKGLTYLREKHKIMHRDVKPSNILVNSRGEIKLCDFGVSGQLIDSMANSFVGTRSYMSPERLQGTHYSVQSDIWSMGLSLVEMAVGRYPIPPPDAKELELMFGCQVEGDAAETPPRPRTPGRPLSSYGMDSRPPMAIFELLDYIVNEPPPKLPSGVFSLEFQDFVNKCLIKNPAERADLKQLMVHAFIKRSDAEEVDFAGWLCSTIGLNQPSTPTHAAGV
Test [4] concerns the target Mast/stem cell growth factor receptor Kit (Homo sapiens, UniProt P10721). Description: Inhibition of human recombinant c-kit kinase in cell free system after 30 mins.
The target in test [5] is Platelet-derived growth factor receptor alpha (Homo sapiens, UniProt P16234). Description: Inhibition of human recombinant PDGFRalpha in cell free system after 60 mins.
Sequence of Platelet-derived growth factor receptor alpha (P16234 whole entry): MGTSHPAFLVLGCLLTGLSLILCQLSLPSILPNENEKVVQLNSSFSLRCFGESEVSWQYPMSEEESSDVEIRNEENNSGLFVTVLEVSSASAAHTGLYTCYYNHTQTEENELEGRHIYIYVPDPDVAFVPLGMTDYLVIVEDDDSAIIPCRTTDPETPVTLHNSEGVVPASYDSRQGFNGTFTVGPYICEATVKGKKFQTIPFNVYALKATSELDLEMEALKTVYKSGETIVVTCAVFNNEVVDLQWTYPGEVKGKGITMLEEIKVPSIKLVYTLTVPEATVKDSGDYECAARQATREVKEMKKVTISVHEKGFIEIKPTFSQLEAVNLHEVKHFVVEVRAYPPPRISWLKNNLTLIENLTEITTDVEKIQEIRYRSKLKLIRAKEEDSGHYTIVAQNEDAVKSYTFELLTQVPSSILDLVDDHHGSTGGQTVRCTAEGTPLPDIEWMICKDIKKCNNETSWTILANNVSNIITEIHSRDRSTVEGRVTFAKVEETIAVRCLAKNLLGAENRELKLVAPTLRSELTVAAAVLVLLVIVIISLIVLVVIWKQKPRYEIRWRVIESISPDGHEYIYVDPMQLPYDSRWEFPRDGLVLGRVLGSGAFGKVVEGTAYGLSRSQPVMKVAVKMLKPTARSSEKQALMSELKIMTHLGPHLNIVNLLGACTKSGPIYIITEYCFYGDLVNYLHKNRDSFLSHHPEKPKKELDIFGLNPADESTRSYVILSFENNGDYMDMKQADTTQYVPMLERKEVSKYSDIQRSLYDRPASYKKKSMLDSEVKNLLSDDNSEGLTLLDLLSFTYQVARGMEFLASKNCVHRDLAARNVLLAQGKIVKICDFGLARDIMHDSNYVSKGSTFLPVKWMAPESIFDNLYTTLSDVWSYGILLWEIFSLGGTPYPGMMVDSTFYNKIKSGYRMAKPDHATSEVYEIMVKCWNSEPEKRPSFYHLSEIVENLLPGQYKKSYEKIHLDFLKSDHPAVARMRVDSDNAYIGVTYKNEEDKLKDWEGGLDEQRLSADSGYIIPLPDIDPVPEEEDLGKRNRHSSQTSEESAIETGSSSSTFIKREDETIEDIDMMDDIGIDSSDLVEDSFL
The subject of test [6] is Jurkat. Description: Antiproliferative activity against human Jurkat cells after 48 hrs by celltiter glo assay. A general note: In ATP-based viability assays light output follows the ATP content of the culture.
Test [7] has as its target Mitogen-activated protein kinase 3 (Homo sapiens, UniProt P27361). Kind of test: Inhibition of human recombinant ERK1 expressed in E.coli after 30 mins.
Test [8] addresses Mitogen-activated protein kinase 1 (Homo sapiens, UniProt P28482). Description: Inhibition of human recombinant ERK2 expressed in E.coli after 15 mins.
For test [9], the target named is Vascular endothelial growth factor receptor 2 (Homo sapiens, UniProt P35968). Kind of test: Inhibition of human recombinant VEGFR2 expressed in Sf9 cells after 60 mins.
Sequence of Vascular endothelial growth factor receptor 2 (P35968 whole entry): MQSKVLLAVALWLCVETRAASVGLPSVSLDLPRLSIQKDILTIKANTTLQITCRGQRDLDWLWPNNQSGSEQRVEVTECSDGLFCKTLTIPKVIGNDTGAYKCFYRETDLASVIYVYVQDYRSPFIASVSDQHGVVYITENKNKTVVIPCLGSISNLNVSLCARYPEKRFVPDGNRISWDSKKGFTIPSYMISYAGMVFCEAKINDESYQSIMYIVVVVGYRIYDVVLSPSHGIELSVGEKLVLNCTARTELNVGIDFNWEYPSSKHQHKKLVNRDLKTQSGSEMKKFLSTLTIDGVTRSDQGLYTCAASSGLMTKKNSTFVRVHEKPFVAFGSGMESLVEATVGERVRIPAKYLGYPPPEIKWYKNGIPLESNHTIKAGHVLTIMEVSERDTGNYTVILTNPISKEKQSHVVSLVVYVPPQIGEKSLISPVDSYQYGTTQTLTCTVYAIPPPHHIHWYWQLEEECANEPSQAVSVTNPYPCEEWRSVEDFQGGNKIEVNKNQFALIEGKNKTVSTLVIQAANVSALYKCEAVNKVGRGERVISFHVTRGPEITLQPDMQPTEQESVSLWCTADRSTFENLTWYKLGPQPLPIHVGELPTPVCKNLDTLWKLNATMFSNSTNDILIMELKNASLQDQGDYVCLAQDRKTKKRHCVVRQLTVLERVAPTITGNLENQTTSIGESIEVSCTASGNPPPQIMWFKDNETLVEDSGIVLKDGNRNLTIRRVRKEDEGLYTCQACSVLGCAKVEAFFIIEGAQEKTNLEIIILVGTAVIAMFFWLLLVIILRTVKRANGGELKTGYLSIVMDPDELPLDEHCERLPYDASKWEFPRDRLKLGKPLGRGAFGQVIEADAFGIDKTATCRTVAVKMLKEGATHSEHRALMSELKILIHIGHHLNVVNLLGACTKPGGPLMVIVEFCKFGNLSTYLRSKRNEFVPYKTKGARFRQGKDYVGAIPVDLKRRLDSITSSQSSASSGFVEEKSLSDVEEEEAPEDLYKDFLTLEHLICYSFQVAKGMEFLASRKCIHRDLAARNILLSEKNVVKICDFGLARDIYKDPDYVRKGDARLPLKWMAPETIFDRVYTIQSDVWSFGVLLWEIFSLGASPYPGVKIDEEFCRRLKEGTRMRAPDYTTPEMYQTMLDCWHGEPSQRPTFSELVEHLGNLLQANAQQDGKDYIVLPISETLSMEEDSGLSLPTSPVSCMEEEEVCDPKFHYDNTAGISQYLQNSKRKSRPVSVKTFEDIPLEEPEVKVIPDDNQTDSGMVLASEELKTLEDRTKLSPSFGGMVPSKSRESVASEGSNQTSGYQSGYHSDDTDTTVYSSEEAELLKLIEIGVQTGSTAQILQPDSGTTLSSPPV
For test [10], the system named is HUVEC. Kind of test: Antiangiogenic activity against HUVEC co-cultured with vascular smooth muscle cells assessed as inhibition of organotypic capillary network formation at 11 uM after 72 hrs. To be noted: Homo sapiens. Type of test: functional, cell-based.
Test [11] deals with HUVEC. Description: Antiangiogenic activity against HUVEC co-cultured with vascular smooth muscle cells assessed as inhibition of tube formation at 11 uM after 72 hrs. Type of test: functional, cell-based. The note with it: Homo sapiens.
Test [12] has as its target Glycogen synthase kinase-3 alpha (Homo sapiens, UniProt P49840). Description: Inhibition of human recombinant GSK3alpha in cell free system after 60 mins.
The target in test [13] is Vascular endothelial growth factor receptor 1 (Homo sapiens, UniProt P17948). Description: Inhibition of human recombinant VEGFR1 expressed in Sf9 cells after 10 mins.
For test [14], the system named is Jurkat. Kind of test: Antiproliferative activity against human Jurkat cells after 24 hrs by celltiter glo assay.
For test [15], the target named is Platelet-derived growth factor receptor beta (Homo sapiens, UniProt P09619). Kind of test: Inhibition of human recombinant PDGFRbeta expressed in insect cells after 30 mins.
For test [16], the system named is HUVEC. Description: Antiangiogenic activity against HUVEC co-cultured with vascular smooth muscle cells assessed as inhibition of tube formation at 33 uM after 72 hrs. Type of test: functional, cell-based. To be noted: Homo sapiens.
The subject of test [17] is HUVEC. Description: Antiangiogenic activity against HUVEC co-cultured with vascular smooth muscle cells assessed as inhibition of organotypic capillary network formation at 33 uM after 72 hrs. Type of test: functional, cell-based. To be noted: Homo sapiens.
For test [18], the target named is Glycogen synthase kinase-3 beta (Homo sapiens, UniProt P49841). Description: Inhibition of human recombinant GSK3-beta in cell free system after 90 mins.
Test [19] concerns the target Mitogen-activated protein kinase 7 (Homo sapiens, UniProt Q13164). Kind of test: Inhibition of human recombinant ERK5 in cell free system after 90 mins.
In test [20] the test system is HUVEC. Description: Antiangiogenic activity against HUVEC co-cultured with vascular smooth muscle cells assessed as inhibition of tube formation upto 100 uM after 72 hrs. Type of test: functional, cell-based. The note with it: Homo sapiens.
Test [21] relates to HUVEC. Description: Antiangiogenic activity against HUVEC co-cultured with vascular smooth muscle cells assessed as inhibition of organotypic capillary network formation upto 100 uM after 72 hrs. Type of test: functional, cell-based. The note with it: Homo sapiens.

The source made the active and inactive calls. The rule behind the calls is not given here.

Sequence of Mast/stem cell growth factor receptor Kit (P10721 whole entry): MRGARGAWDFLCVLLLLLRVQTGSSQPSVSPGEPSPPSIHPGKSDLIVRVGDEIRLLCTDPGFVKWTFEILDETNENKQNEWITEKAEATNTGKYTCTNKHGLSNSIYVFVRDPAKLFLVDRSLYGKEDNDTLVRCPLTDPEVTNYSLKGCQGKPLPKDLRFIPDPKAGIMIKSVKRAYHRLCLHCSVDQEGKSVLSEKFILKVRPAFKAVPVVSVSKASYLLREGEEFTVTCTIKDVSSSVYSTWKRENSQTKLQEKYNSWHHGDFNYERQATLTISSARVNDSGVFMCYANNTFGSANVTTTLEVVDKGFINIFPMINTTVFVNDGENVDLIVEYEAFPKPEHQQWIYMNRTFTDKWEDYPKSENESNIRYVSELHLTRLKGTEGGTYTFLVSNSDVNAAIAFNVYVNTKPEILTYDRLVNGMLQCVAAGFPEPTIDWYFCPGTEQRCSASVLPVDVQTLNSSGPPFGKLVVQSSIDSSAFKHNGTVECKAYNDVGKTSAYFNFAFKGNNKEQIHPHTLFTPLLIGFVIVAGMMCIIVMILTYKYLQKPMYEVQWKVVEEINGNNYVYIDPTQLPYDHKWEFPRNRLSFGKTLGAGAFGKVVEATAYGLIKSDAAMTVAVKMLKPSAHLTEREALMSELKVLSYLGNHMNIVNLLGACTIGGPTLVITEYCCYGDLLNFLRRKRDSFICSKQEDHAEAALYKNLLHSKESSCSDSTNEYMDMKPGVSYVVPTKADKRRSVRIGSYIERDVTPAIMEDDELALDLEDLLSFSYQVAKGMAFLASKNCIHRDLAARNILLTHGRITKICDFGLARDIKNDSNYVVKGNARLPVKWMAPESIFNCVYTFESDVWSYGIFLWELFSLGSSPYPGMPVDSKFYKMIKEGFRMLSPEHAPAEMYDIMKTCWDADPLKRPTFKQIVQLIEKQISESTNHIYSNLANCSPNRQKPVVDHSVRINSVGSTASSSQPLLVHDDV
Sequence of Mitogen-activated protein kinase 3 (P27361 whole entry): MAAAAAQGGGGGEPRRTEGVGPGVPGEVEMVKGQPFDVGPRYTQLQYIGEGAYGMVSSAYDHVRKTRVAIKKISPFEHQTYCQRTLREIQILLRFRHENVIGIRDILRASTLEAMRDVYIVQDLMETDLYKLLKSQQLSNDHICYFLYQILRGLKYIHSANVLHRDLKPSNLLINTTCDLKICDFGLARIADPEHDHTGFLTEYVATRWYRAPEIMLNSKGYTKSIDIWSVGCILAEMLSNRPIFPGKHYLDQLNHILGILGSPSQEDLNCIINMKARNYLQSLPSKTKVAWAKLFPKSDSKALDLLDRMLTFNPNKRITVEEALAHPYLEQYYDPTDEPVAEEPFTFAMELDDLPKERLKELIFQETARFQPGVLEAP
Sequence of Mitogen-activated protein kinase 1 (P28482 whole entry): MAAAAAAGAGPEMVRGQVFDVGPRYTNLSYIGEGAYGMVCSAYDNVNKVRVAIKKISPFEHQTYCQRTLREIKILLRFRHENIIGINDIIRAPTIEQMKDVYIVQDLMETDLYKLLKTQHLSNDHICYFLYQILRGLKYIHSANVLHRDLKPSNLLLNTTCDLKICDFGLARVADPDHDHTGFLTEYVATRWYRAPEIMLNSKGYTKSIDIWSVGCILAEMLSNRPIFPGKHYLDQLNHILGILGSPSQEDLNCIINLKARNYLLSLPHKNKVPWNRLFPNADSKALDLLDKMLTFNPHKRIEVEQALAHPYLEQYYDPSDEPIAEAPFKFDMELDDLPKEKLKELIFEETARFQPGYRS
Sequence of Glycogen synthase kinase-3 alpha (P49840 whole entry): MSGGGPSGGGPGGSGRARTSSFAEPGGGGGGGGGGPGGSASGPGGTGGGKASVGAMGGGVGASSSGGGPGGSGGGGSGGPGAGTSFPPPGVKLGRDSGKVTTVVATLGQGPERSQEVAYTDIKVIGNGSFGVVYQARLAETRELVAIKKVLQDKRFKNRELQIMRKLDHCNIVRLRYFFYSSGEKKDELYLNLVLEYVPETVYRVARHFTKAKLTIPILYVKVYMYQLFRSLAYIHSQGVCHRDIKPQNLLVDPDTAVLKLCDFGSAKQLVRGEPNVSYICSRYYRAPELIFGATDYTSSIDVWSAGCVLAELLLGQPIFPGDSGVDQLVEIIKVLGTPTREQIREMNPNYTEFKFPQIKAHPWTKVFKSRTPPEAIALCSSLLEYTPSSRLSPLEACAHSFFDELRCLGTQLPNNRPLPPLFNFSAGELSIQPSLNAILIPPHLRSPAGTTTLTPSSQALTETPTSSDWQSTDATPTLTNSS

As for `COc1cc(O)c2c(c1)CCCCCC(=O)/C=C/C[C@H](C)OC2=O`, the IC50 in [1] is 0.72 µM; in test [2] it was 0.33 µM; in test [3] it was 12 µM; in test [4], 1.3 µM; in [5] it was 0.089 µM; in the test with Jurkat [6], 9.7 µM. The IC50 in test [7] is more than 100 µM; in [8], more than 100 µM; in test [9], 0.31 µM; in [12] it was more than 100 µM; in [13], 33 µM; in the test with Jurkat [14] it was 13 µM. The result in the test on HUVEC [10] and with HUVEC [11] was Active.
Consider `COc1cc(O)c2c(c1)CCCCCC(=O)C[C@H](Cl)C[C@H](C)OC2=O`, for which the IC50 in test [4] is 47 µM; in the test with Jurkat [6], 8.4 µM; in test [9], 93 µM; with Jurkat [14], 10.6 µM.
As for `COc1cc(O)c2c(c1)/C=C\CCCC(=O)/C=C/C[C@H](C)OC2=O`, the IC50 is 1.6 µM in test [1]; more than 100 µM in test [15]; 0.59 µM in [2]; more than 100 µM in test [3]; 1.4 µM in test [4]; 0.45 µM in [5]. Besides, the IC50 in the test on Jurkat [6] amounted to 15.4 µM; in [9], 2.3 µM; in test [13] it was 15 µM; in the test with Jurkat [14], 19.5 µM.
Consider `COc1cc(O)c2c(c1)CCCCCC(=O)C[C@H](Br)C[C@H](C)OC2=O`, for which the IC50 is 11 µM in test [4]; 9.7 µM with Jurkat [6]; 4.3 µM in test [9]; more than 100 µM in test [13]; 11.4 µM in the test with Jurkat [14].
On to `COc1cc(O)c2c(c1)/C=C/CCCC(=O)C[C@H](Cl)C[C@H](C)OC2=O`, for which the IC50 in test [1] is more than 100 µM; in test [4] it was more than 100 µM; in the test with Jurkat [6], 9.2 µM; in the test with Jurkat [14], 10.9 µM.
Turning to `COc1cc(O)c2c(c1)/C=C/CCCC(O)C[C@H](Cl)C[C@H](C)OC2=O` (some centres not stated), the outcome with HUVEC [16] and in the test with HUVEC [17] was Active.
As to `COc1cc(O)c2c(c1)/C=C/C[C@@H](O)[C@H](O)C(=O)/C=C\C[C@H](C)OC2=O`, the IC50 in test [1] was found to be 0.0005 µM; in test [2] it was 0.0049 µM; in test [18], 18 µM; in test [3], 0.002 µM; in [4] it was 0.0096 µM; in [5] it was 0.00024 µM. Further, the IC50 stood at 5.5 µM with Jurkat [6]; 1.4 µM in test [7]; 1.3 µM in test [8]; 0.00049 µM in test [9]; 1.9 µM in test [12]; 0.012 µM in test [13]. The figures for the IC50 (with Jurkat [14]; in test [19]) were 7 µM and more than 100 µM, respectively.
Consider `COc1cc(O)c2c(c1)CCCCCC(=O)CCC[C@H](C)OC2=O`, for which the result in the test with HUVEC [20] and in the test with HUVEC [21] was inactive.
In the case of `COc1cc(O)c2c(c1)CCCCCC(=O)/C=C\C[C@H](C)OC2=O`, the half-inhibitory concentration (IC50) was 1.2 µM in test [1]; 0.85 µM in test [2]; 17 µM in test [3]; 4.1 µM in test [4]; 0.44 µM in test [5]; 11 µM in the test on Jurkat [6]. Further, the IC50 was 0.54 µM in test [9], more than 100 µM in [13] and 26 µM in the test on Jurkat [14].
Take `COc1cc(O)c2c(c1)/C=C/CCCC(=O)/C=C/C[C@H](C)OC2=O`: the IC50 was 1.4 µM in test [1]; 9.2 µM in test [15]; 0.33 µM in [2]; more than 100 µM in test [18]; 22 µM in [3]; 1.3 µM in test [4]. Also, the IC50 was 0.027 µM in test [5]; 8.9 µM in the test with Jurkat [6]; more than 100 µM in test [7]; more than 100 µM in test [8]; 1 µM in [9]; more than 100 µM in test [12]. Also, the IC50 was found to be 51 µM in test [13] and 11 µM in the test on Jurkat [14].
Consider `COc1cc(O)c2c(c1)/C=C\CCCC(=O)C[C@H](Br)C[C@H](C)OC2=O`, for which the IC50 in [4] came to 81 µM; in the test with Jurkat [6], 7.5 µM; in [9] it was 24 µM; in the test with Jurkat [14], 6.1 µM.
On to `COc1cc(O)c2c(c1)/C=C/CCCC(=O)C[C@H](Br)C[C@H](C)OC2=O`, for which the IC50 was more than 100 µM in [15]; 2.8 µM in [4]; 9.7 µM in the test on Jurkat [6]; more than 100 µM in [9]; 11.7 µM in the test on Jurkat [14].
For `COc1cc(O)c2c(c1)/C=C\CCCC(=O)C[C@H](Cl)C[C@H](C)OC2=O`, the IC50 in [1] was more than 100 µM; in test [4], 100 µM; with Jurkat [6], 8.8 µM; in test [9], 82 µM; in the test on Jurkat [14], 9.5 µM.
